Assay results published in PubChem BioAssay (NCI).
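In this assay, cells in 96-well plates receive the compound at five concentrations for 48 hours. Endpoints are linearly interpolated between the surrounding concentrations. At the GI50, growth is halved. TGI is the concentration that stops growth completely.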 Where a SMILES comes first, the peptide text is derived from it. Bridges are numbered along the chain shown (N, C = ends). Roman numbers before positions name the chains, in order. [ ]: non-standard residue; d: D form. The star is where a group is joined. Heptadecanoyl = CCCCCCCCCCCCCCCCC(=O)*; Phg = N[CH](C(=O)O)c1ccccc1

Columns and labels:
Experiment in all cases: NCI tumour cell line growth inhibition, 48 h
[1] = system: MDA-N
[2] = system: SNB-19 CNS
[3] = system: SN12C renal
[4] = system: EKVX NSCLC
[5] = system: MDA-MB-231 breast
[6] = system: HCT-15 colon
[7] = system: NCI-H226 lung
[8] = system: A549 NSCLC
[9] = system: HOP-92 NSCLC
[10] = system: SK-MEL-28 melanoma
[11] = system: MCF7 breast

Compound	TGI [1] [µM]	TGI [2] [µM]	TGI [3] [µM]	TGI [4] [µM]	TGI [5] [µM]	TGI [6] [µM]	TGI [7] [µM]	TGI [8] [µM]	TGI [9] [µM]	TGI [10] [µM]	TGI [11] [µM]	GI50 [2] [µM]	GI50 [3] [µM]	GI50 [4] [µM]	GI50 [5] [µM]	GI50 [7] [µM]	GI50 [8] [µM]	GI50 [9] [µM]	GI50 [10] [µM]	GI50 [11] [µM]
CC(=O)OCC1OC(OC2CC3C(C)(C)C(=O)CC[C@]3(C)C3CC[C@]45C[C@]4(CCC5[C@@H](C)CC(O)C(O)C(C)(C)O)[C@]23C)C(O)C(O)C1O (stereo partly drawn)	22.7	23.3	26.4	29.9	19.5	31.4	30.6	31.6	13.7	12.6	16.7									
CN(C)C1COC2Cc3ccccc3C1O2 (stereo not drawn)	> 100	> 100	> 100	> 100	> 100	> 100	> 100	> 100	> 100	> 100	> 100									
O=C(NO)c1ccc(OCc2ccccc2)cc1	> 100	> 100	> 100	> 100	> 100	45	> 100	> 100	> 100	> 100	> 100									
CC[C@@H]1C[C@@H](O)[C@@H]2[C@H](O)[C@H](O)CN2C1	> 100	> 100	> 100	> 100	> 100	> 100	> 100	> 100	> 100	> 100	> 100									
O=C1c2ccc3ccccc3c2CCC1N1CCCCC1 (stereo not drawn)		40.8	29	51.7	30.6	37.4	31.4	36.3	32.2	33.1	> 100									
COC(=O)c1cc(/C=C2\Cc3cc4c(cc3C2=O)CCC4)cc2c1CCC2	> 100	> 100	> 100	> 100	> 100	> 100	> 100	> 100		> 100	> 100									
COc1cc(OC)nc(NC(=O)NS(=O)(=O)c2cccc3ncn(C)c(=O)c23)n1	> 100	> 100	> 100	> 100	> 100	> 100	> 100	> 100	> 100		> 100									
CC1(C)OC([C@H](O)CO)C([C@H]2NCCS2)O1 (stereo partly drawn)		> 100		> 100	> 100	> 100	> 100	> 100	> 100	> 100										
Cc1cc(-c2ccc(Cl)cc2)c(C#N)c(=S)n1C1OC(CO)C(O)C(O)C1O (stereo not drawn)	> 100	> 100	> 100	> 100	> 100	> 100	> 100	> 100		> 100	> 100									
CC1CC(=O)NC2CC1C2(C)C (stereo not drawn)	> 100	> 100	> 100		> 100	> 100	> 100	> 100	> 100	> 100	> 100									
CCCCCCCCCCCCCCCCC(=O)N1CCCC1C(=O)NCC(=O)NC(C(=O)N1CCCC1C(=O)NC(CO)C(=O)NC(Cc1ccc(O)cc1)C(=O)NC(CCCCNC(=O)C1CCCN1C(=O)C(CCCCN)NC(=O)C(CCCCN)NC(=O)C(CCCCN)NC(=O)C(CCCNC(=N)N)NC(=O)C(CCCCN)NC(=O)C(N)C(C)C)C(=O)NC(CC(C)C)C(=O)NC(CCCNC(=N)N)C(=O)N1CCCC1C(=O)NCC(N)=O)c1ccccc1 (stereo not drawn) (I: Heptadecanoyl-PG[Phg]PSYKLRPG-NH2 / II: H-VKRKKKP; amide I:7-II:C; configuration not given here)		84.1	27.7	84.4	36.1		49.3	53.3	83	> 100	> 100	31.2	12	27.7	17.7	22.1	23.9	30.4	19.5	23.6
CC1(C)CC[C@]2(C(=O)O)CC[C@]3(C)C(=CC[C@@H]4[C@@]5(C)CC[C@@H]6OC(C)(C)OC[C@@]6(C)[C@@H]5CC[C@]43C)[C@H]2C1	27	96.2	13	19.4	12.9	13.9				29.2										
O=C(O)CCCC#CCCCC(=O)O	> 100	> 100	> 100	> 100		> 100		> 100	> 100	> 100	> 100									
CC(C)C(/C=C/c1ccc(Cl)cc1)=N\NC(=S)NN	> 100	> 100	> 100		> 100	> 100	93	> 100		> 100	52.5									
CC1OC2OC3C(OCC(O)C3O)OC(=O)[C@]34CCC(C)(C)CC3C3=CCC5[C@@]6(C)C[C@H](O)[C@H](OC7OC(CO)C(O)C(O)C7OC7OC(COC(=O)CC(C)(O)CC(=O)OC1C(O)C2O)C(O)C(O)C7O)[C@@](C)(CO)C6CC[C@@]5(C)[C@]3(C)CC4 (stereo partly drawn)	2.73	3.18	4.37		3.11	2.91	5.19	2.63	2.94	2.79	15.2									
O=C1CCC2(c3ccc(F)cc3)Nc3ncncc3N12 (stereo not drawn)	> 10	> 10	> 10	> 10		> 10	> 10	> 10	> 10		> 10									
CC(=O)O[C@H]1C(=O)[C@@]2(C)[C@H]([C@H](OC(=O)c3ccncc3)[C@]3(O)C[C@H](OC(=O)[C@H](O)[C@@H](NC(=O)c4ccccc4)c4ccccc4)C(C)=C1C3(C)C)[C@]1(OC(C)=O)CO[C@@H]1C[C@@H]2O	2.1	> 25	> 25	> 25	> 25	> 25	> 25	> 25		> 25	> 25									
CCCCC/C(=N\c1nc[nH]c1C(N)=O)OCC	> 100	> 100	> 100	> 100	> 100	> 100	> 100	> 100		> 100	> 100									
CCOC(=O)c1cc(C2(OC)CCN(Cc3ccccc3)C2=O)c(-c2cc(C)no2)[nH]1 (stereo not drawn)	> 100	> 100		> 100	> 100	> 100		> 100	> 100	> 100	> 100									
